From patent US9725442B2, “Heterocyclic derivative having PGD2 receptor antagonist activity” (Shionogi & Co., Ltd., priority 2011, dated 2017) come the findings set out here.

Where two headings read alike, the source gives them in different places.

A word on the Ki: it is a dissociation constant, usually derived from enzyme kinetics or from competition with a known ligand. Broadly, the IC50 is the concentration at which inhibition is half-maximal. The low end stands for inhibition by little substance, the high end for a need for much substance.

Test [1] concerns the target CRTH2 (Homo sapiens (Human), UniProt Q9Y5Y4). Briefly: CRTH2 receptor binding inhibitory activity ([3H]-PGD2 displacement, membranes of CRTH2-expressing K562 cell). The conditions noted are these: [3H]-PGD2 displacement, membrane of CRTH2-expressing K562 cell, read-out: Ki. The gist of the method: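 CRTH2-expressing K562 membranes (20 μg/well) in 50 mM Tris/HCl pH 7.4 with 10 mM MgCl2 were incubated with [3H]-PGD2 for 60 min at room temperature, then filtered.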

For test [2], the target named is Human DP1 receptor (Homo sapiens (Human), UniProt Q13258). Description: Human DP1 inhibitory activity in DP1-expressing cell (PGD2-induced cAMP). The format is cell-based. On the procedure:
Compounds were categorized as AA (cAMP is less than 100 nM) and A (cAMP is more than 100 nM and less than 5000 nM) as shown in Table 99 and 100.

Setting [3] is: CRTH2 receptor binding, categorized AAAA/AAA.
Setting [4] is: category of cAMP IC50, human DP1 receptor expressing Jurkut cell.

Chain of CRTH2 (Q9Y5Y4 whole entry): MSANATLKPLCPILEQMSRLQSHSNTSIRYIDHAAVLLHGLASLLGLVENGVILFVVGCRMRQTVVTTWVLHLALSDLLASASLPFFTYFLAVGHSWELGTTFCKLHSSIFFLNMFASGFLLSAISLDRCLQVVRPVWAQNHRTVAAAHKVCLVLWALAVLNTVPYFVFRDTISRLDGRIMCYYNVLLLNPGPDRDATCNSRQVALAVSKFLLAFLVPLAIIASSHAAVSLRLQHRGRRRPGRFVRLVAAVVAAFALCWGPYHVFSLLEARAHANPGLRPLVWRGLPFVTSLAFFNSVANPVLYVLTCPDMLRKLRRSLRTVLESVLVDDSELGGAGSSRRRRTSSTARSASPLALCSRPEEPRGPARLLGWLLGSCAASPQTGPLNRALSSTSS
Chain of Human DP1 receptor (Q13258 whole entry): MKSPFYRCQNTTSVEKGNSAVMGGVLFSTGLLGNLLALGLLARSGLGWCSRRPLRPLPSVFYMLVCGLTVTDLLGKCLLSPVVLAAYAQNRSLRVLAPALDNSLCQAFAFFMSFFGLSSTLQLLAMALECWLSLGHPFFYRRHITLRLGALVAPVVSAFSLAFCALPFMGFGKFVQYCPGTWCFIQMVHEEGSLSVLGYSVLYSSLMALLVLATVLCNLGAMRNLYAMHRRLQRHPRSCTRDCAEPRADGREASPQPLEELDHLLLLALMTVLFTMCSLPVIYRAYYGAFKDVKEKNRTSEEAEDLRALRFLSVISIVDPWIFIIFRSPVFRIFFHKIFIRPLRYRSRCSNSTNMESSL

Take `C[C@@H]1CN(S(=O)(=O)c2ccc(OC(F)F)cc2)C[C@@H]1n1nc(CC(=O)O)c2ccc(Cl)cc21` [Compound I-134]: in test [1] (setting [3]), the Ki was less than 100 nM. In test [2] (setting [4]), this molecule yielded an IC50 of less than 100 nM.
Regarding `CC(C)Oc1ccc(S(=O)(=O)N2C[C@@H](C)[C@@H](n3nc(CC(=O)O)c4ccc(Cl)cc43)C2)cc1` [Compound I-135], the Ki in test [1] (setting [3]) is less than 100 nM. This molecule had an IC50 in test [2] (setting [4]) of less than 100 nM.
On to `C[C@H]1CN(S(=O)(=O)c2ccc(OC(F)F)cc2)C[C@H]1n1nc(CC(=O)O)c2ccc(F)cc21` [Compound I-136], for which, in test [1] (setting [3]), the Ki lay in the range of 100 to 5000 nM. The molecule further displayed an IC50 in test [2] (setting [4]) of 100 to 5000 nM.
As for `CCOc1ccc(S(=O)(=O)N2C[C@@H](C)[C@@H](n3nc(CC(=O)O)c4ccc(Cl)cc43)C2)cc1` [Compound I-137], in test [1] (setting [3]), the Ki is less than 100 nM. Besides, the IC50 in test [2] (setting [4]) is less than 100 nM.
With `CC(C)Oc1ccc(S(=O)(=O)N2C[C@@H](C)[C@@H](n3nc(CC(=O)NS(C)(=O)=O)c4ccc(F)cc43)C2)cc1` [Compound I-138], the Ki in test [1] (setting [3]) was less than 100 nM; in test [1], 65 nM. The IC50 in test [2] (setting [4]) lay within 100 to 5000 nM.
In the same order, the values of `CC(C)Oc1ccc(S(=O)(=O)N2C[C@@H](C)[C@@H](n3nc(CC(=O)NC#N)c4ccc(F)cc43)C2)cc1` [Compound I-139] are less than 100 nM, 32 nM and less than 100 nM.
With `COc1ccc(S(=O)(=O)N2C[C@@H](C)[C@@H](n3nc(CC(=O)O)c4ccc(Cl)cc43)C2)cc1` [Compound I-140], the Ki in test [1] (setting [3]) was less than 100 nM. For the same molecule, in test [2] (setting [4]), the IC50 was less than 100 nM.
`CCc1ccc(S(=O)(=O)N2C[C@@H](C)[C@@H](n3nc(CC(=O)O)c4ccc(Cl)cc43)C2)cc1` [Compound I-141]: in test [1] (setting [3]), the Ki was less than 100 nM. For the same molecule, the IC50 in test [2] (setting [4]) was less than 100 nM.
Turning to `CCOc1ccc(S(=O)(=O)N2C[C@@H](C)[C@@H](n3nc(CC(=O)O)c4ccc(Cl)cc43)C2)cn1` [Compound I-143], the Ki in test [1] (setting [3]) was less than 100 nM. Moreover, the IC50 in test [2] (setting [4]) was less than 100 nM.
Regarding `CC(C)Oc1ccc(S(=O)(=O)N2C[C@@H](C)[C@@H](n3nc(CC(=O)O)c4cccnc43)C2)cc1` [Compound I-145], the values for the Ki in test [1] (setting [3]) and in test [1] were less than 100 nM and 3.1 nM, respectively. Further, the IC50 in test [2] (setting [4]) is 100 to 5000 nM.
For the molecule `CC(C)Oc1ccc(S(=O)(=O)N2C[C@@H](C)[C@@H](n3nc(CC(=O)O)c4ccc(Cl)cc43)C2)cn1` [Compound I-146], in test [1] (setting [3]), the Ki was less than 100 nM. In addition, in test [2] (setting [4]), the IC50 was less than 100 nM.
As for `CCOc1ccc(S(=O)(=O)N2C[C@@H](C)[C@@H](n3nc(CC(=O)O)c4ccc(F)cc43)C2)c(F)c1` [Compound I-147], the Ki in test [1] (setting [3]) was less than 100 nM. In test [2] (setting [4]), this molecule returned an IC50 of less than 100 nM.
Turning to `CC(C)Oc1ccc(S(=O)(=O)N2C[C@@H](C)[C@@H](n3cc(CC(=O)O)c4cccnc43)C2)cc1` [Compound I-148], the Ki is less than 100 nM in test [1] (setting [3]) and 5.6 nM in test [1]. In test [2] (setting [4]), the IC50 is 100 to 5000 nM.
As to `CC(C)Oc1ccc(S(=O)(=O)N2C[C@@H](C)[C@@H](n3nc(CC(=O)O)c4ccc(F)cc43)C2)nc1` [Compound I-149], the Ki in test [1] (setting [3]) is less than 100 nM; in test [1], 4.8 nM. In test [2] (setting [4]), this molecule gave an IC50 of 100 to 5000 nM.
`CCCCOc1ccc(S(=O)(=O)N2C[C@@H](C)[C@@H](n3nc(CC(=O)O)c4ccccc43)C2)cc1` [Compound I-151]: the Ki in test [1] (setting [3]) was less than 100 nM. Further, the IC50 in test [2] (setting [4]) is less than 100 nM.
For `C[C@@H]1CN(S(=O)(=O)c2cc3ccccc3s2)C[C@@H]1n1nc(CC(=O)O)c2ccccc21` [Compound I-152], the Ki in test [1] (setting [3]) was less than 100 nM; in test [1], 56 nM. Besides, the IC50 in test [2] (setting [4]) is 100 to 5000 nM.
The like results for `CC1Cc2cc(S(=O)(=O)N3C[C@@H](C)[C@@H](n4nc(CC(=O)O)c5ccccc54)C3)ccc2O1` (some centres unmarked) [Compound I-153] were, in that order, less than 100 nM, 65 nM and less than 100 nM.
With `CCOc1ccc(S(=O)(=O)N2C[C@@H](n3nc(CC(=O)O)c4ccc(F)cc43)[C@@H](C)[C@@H]2C#N)cc1` [Compound I-155], the Ki in test [1] (setting [3]) was in the range of 100 to 5000 nM. This molecule yielded an IC50 in test [2] (setting [4]) of 100 to 5000 nM.
As for `CC(C)Oc1ccc(S(=O)(=O)N2C[C@@H](C)[C@@H](n3nc(Cc4nnn[nH]4)c4ccc(F)cc43)C2)cc1` [Compound I-157], the Ki was 100 to 5000 nM in test [1] (setting [3]) and 270 nM in test [1]. The same molecule displayed an IC50 in test [2] (setting [4]) of 100 to 5000 nM.
In the case of `C[C@]1(O)CN(S(=O)(=O)c2ccc(F)cc2)C[C@@H]1n1nc(CC(=O)O)c2ccccc21` [Compound I-158], the Ki in test [1] (setting [3]) is less than 100 nM. In test [2] (setting [4]), the IC50 lay within 100 to 5000 nM.
In the same order, the values of `CCOc1ccc(S(=O)(=O)N2C[C@@H](C)[C@@H](n3nc(CC(=O)O)c4cc(C#N)ccc43)C2)cc1` [Compound I-160] are 100 to 5000 nM and less than 100 nM.
In the same order, the values of `CCOc1ccc(S(=O)(=O)N2C[C@@H](C)[C@@H](n3nc(CC(=O)O)c4cc(Cl)ccc43)C2)cc1` [Compound I-161] are 100 to 5000 nM and less than 100 nM.
In the same order, the values of `CCOc1ccc(S(=O)(=O)N2C[C@@H](C)[C@@H](n3nc(CC(=O)O)c4cc(Cl)ccc43)C2)cn1` [Compound I-162] are 100 to 5000 nM and less than 100 nM.
On to `CC(C)Oc1ccc(S(=O)(=O)N2C[C@@H](C)[C@@H](n3nc(CC(=O)O)c4cc(Cl)ccc43)C2)cc1` [Compound I-163], for which the Ki in test [1] (setting [3]) lay within 100 to 5000 nM. For the same molecule, the IC50 in test [2] (setting [4]) is less than 100 nM.
The like results for `CC(C)Oc1ccc(S(=O)(=O)N2C[C@@H](C)[C@@H](n3nc(CC(=O)O)c4cc(C#N)c(F)cc43)C2)cc1` [Compound I-167] were, in that order, 100 to 5000 nM and less than 100 nM.
The like results for `CCOc1ncc(S(=O)(=O)N2C[C@@H](C)[C@@H](n3nc(CC(=O)O)c4ccccc43)C2)s1` [Compound I-168] were, in that order, less than 100 nM and less than 100 nM.
In the same order, the values of `CCOc1ccc(S(=O)(=O)N2C[C@@H](C)[C@@H](n3nc(CC(=O)O)c4ccc(F)cc43)C2)s1` [Compound I-169] are less than 100 nM and less than 100 nM.
In the case of `CCOc1ncc(S(=O)(=O)N2C[C@@H](C)[C@@H](n3nc(CC(=O)O)c4ccc(C)cc43)C2)s1` [Compound I-170], the inhibition constant (Ki) in test [1] (setting [3]) is less than 100 nM. In test [2] (setting [4]), this molecule came in with an IC50 of less than 100 nM.
Turning to `CCOc1ccc(S(=O)(=O)N2C[C@@H](C)[C@@H](n3nc(CC(=O)O)c4ccc(C)cc43)C2)s1` [Compound I-171], the Ki in test [1] (setting [3]) is less than 100 nM. Further, the concentration for half-maximal inhibition (IC50) in test [2] (setting [4]) was less than 100 nM.
Turning to `CCOc1ccc(S(=O)(=O)N2C[C@@H](C)[C@@H](n3nc(CC(=O)O)c4ccc(C#N)cc43)C2)cc1` [Compound I-172], the Ki in test [1] (setting [3]) was less than 100 nM. Further, the IC50 in test [2] (setting [4]) was less than 100 nM.
For the molecule `CCOc1ccc(S(=O)(=O)N2C[C@@H](C)[C@@H](n3nc(CC(=O)O)c4ccc(C#N)cc43)C2)cn1` [Compound I-173], the figures for the Ki in test [1] (setting [3]) and in test [1] were less than 100 nM and 11 nM, respectively. Moreover, in test [2] (setting [4]), the IC50 lay within 100 to 5000 nM.
For `CC(C)Oc1ccc(S(=O)(=O)N2C[C@@H](C)[C@@H](n3nc(CC(=O)O)c4cc5c(cc43)OCO5)C2)cc1` [Compound I-174], the Ki is less than 100 nM in test [1] (setting [3]) and 50 nM in test [1]. Further, the IC50 in test [2] (IC50 of PGD2 (60 nM)-induced cAMP increase, human DP1 receptor expressing Jurkut cell) is 99 nM; in test [2] (setting [4]), less than 100 nM.
Turning to `CCOc1ccc(S(=O)(=O)N2C[C@@H](C)[C@@H](n3nc(CC(=O)O)c4cc5c(cc43)OCO5)C2)cc1` [Compound I-175], the Ki in test [1] (setting [3]) was less than 100 nM. This molecule also displayed an IC50 in test [2] (setting [4]) of 100 to 5000 nM.
